Here are results for 15 compounds from ChEMBL document CHEMBL2057091, “InCl3-catalysed synthesis of 2-aryl quinazolin-4(3H)-ones and 5-aryl pyrazolo[4,3-d]pyrimidin-7(6H)-ones and their evaluation as potential anticancer agents” (Bioorg Med Chem Lett, 2012).

One test has as its system K562. Nature of the test: Antiproliferative activity against human K562 cells by MTT assay. It counts as functional, cell-based. (In general: Tetrazolium dyes change colour on reduction, which living cells bring about.)
In the next test the test system is COLO 205. Nature of the test: Antiproliferative activity against human COLO205 cells by MTT assay. It counts as functional, cell-based.
A further test concerns MDA-MB-231. Description: Antiproliferative activity against human MDA-MB-231 cells by MTT assay. It counts as functional, cell-based.
Test [1] concerns the target T1, NAD-dependent protein deacetylase sirtuin-1 (Homo sapiens) (UniProt Q96EB6).
T1 sequence (whole entry): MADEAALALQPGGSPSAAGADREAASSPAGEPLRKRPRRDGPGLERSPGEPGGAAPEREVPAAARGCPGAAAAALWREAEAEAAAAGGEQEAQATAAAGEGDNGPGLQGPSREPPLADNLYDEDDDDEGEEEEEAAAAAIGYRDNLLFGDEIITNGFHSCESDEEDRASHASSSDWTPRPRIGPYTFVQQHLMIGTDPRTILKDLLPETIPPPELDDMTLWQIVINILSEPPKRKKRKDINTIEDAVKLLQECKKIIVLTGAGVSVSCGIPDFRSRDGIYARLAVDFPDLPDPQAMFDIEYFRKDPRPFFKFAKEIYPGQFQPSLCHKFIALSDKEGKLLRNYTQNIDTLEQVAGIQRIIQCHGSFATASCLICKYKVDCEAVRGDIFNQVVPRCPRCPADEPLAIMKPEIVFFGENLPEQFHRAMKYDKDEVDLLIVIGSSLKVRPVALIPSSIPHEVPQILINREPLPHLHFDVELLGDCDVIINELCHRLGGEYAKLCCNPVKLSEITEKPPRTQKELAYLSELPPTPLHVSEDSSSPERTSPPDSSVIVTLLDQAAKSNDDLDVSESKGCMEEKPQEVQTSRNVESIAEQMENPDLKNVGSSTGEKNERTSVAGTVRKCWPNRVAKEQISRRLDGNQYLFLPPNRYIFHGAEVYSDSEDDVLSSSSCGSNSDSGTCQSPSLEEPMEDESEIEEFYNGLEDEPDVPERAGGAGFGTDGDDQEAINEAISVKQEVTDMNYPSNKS
Description: Inhibition of Sirt1 expressed in human U2OS cells assessed as acetylation of p53 at 10 uM. It counts as cell-based.

The term IC50 denotes the concentration that inhibits the measured activity by half. Read a low IC50 as greater potency in that assay. For the compound `O=c1[nH]c(-c2ccc(Br)cc2)nc2ccccc12`, the half-maximal inhibitory concentration (IC50) in the test with K562 (Homo sapiens, K562) was found to be 21 µM; in the test on COLO 205 (Homo sapiens, COLO 205), 11 µM; with MDA-MB-231 (Homo sapiens, MDA-MB-231) it was 41 µM.

Take `CCCc1nn(C)c2c(=O)[nH]c(-c3ccc(Cl)cc3)nc12`: the 50% inhibitory concentration (IC50) was 15 µM in the test with K562 (Homo sapiens, K562); 10 µM in the test on COLO 205 (Homo sapiens, COLO 205); 51 µM with MDA-MB-231 (Homo sapiens, MDA-MB-231).

Broadly, the inhibition is the share of the control response that was lost under treatment. For the compound `Cc1ccc(C(=O)Nc2ccc(S(=O)(=O)O)c3cc(S(=O)(=O)O)cc(S(=O)(=O)O)c23)cc1NC(=O)c1cccc(NC(=O)Nc2cccc(C(=O)Nc3cc(C(=O)Nc4ccc(S(=O)(=O)O)c5cc(S(=O)(=O)O)cc(S(=O)(=O)O)c45)ccc3C)c2)c1`, in test [1], the inhibition was 79%.

As to `Oc1nc(-c2ccc(F)cc2)nc2ccccc12`, the half-inhibitory concentration (IC50) in the test on K562 (Homo sapiens, K562) is 17 µM; in the test on COLO 205 (Homo sapiens, COLO 205), 10 µM; with MDA-MB-231 (Homo sapiens, MDA-MB-231) it was 20 µM. Also, the inhibition in test [1] was determined as 48%.

With `O=c1[nH]c(-c2ccc([N+](=O)[O-])cc2)nc2ccccc12`, the IC50 with K562 (Homo sapiens, K562) stood at 20 µM; with K562 (k562) it was 19 µM; with COLO 205 (Homo sapiens, COLO 205), 23 µM; in the test on COLO 205 (colo 205), 12 µM; with MDA-MB-231 (Homo sapiens, MDA-MB-231), 37 µM; with MDA-MB-231 (mda-mb-231), 42 µM.

As for `CCCc1nn(C)c2c(=O)[nH]c(-c3cccc(Br)c3)nc12`, the IC50 worked out at 24 µM in the test on K562 (Homo sapiens, K562); 12 µM in the test on COLO 205 (Homo sapiens, COLO 205); 38 µM with MDA-MB-231 (Homo sapiens, MDA-MB-231). The inhibition in test [1] worked out at 59%.

With `COc1ccc(-c2nc(O)c3ccccc3n2)cc1`, the half-maximal inhibitory concentration (IC50) in the test on K562 (Homo sapiens, K562) was found to be 24 µM; with COLO 205 (Homo sapiens, COLO 205), 8 µM; in the test with MDA-MB-231 (Homo sapiens, MDA-MB-231) it was 28 µM.

With `CCCc1nn(C)c2c(=O)[nH]c(-c3cccc([N+](=O)[O-])c3O)nc12`, the IC50 with K562 (Homo sapiens, K562) came to 21 µM; in the test with COLO 205 (Homo sapiens, COLO 205) it was 10 µM; with MDA-MB-231 (Homo sapiens, MDA-MB-231) it was 44 µM. Moreover, in test [1], the inhibition was 61%.

Take `CCCc1nn(C)c2c(=O)[nH]c(-c3ccc(OC)cc3)nc12`: the IC50 with K562 (Homo sapiens, K562) amounted to 21 µM; with COLO 205 (Homo sapiens, COLO 205), 9 µM; with MDA-MB-231 (Homo sapiens, MDA-MB-231), 44 µM.

Take `CCCc1nn(C)c2c(=O)[nH]c(-c3ccc(Br)cc3)nc12`: the concentration for half-maximal inhibition (IC50) in the test on K562 (Homo sapiens, K562) is 17 µM; in the test on COLO 205 (Homo sapiens, COLO 205), 25 µM; in the test on MDA-MB-231 (Homo sapiens, MDA-MB-231), 46 µM.

For `CCCc1nn(C)c2c(=O)[nH]c(-c3cccc(Cl)c3)nc12`, the IC50 in the test on K562 (Homo sapiens, K562) was 16 µM; in the test with COLO 205 (Homo sapiens, COLO 205) it was 11 µM; with MDA-MB-231 (Homo sapiens, MDA-MB-231) it was 40 µM.

As to `CCCc1nn(C)c2c(=O)[nH]c(-c3ccc(O)c(OC(F)F)c3)nc12`, the IC50 in the test on K562 (Homo sapiens, K562) turned out to be 15 µM; with COLO 205 (Homo sapiens, COLO 205), 7 µM; in the test on MDA-MB-231 (Homo sapiens, MDA-MB-231) it was 25 µM. Also, the inhibition in test [1] amounted to 63%.

Regarding `CCCc1nn(C)c2c(=O)[nH]c(-c3ccc(C)cc3)nc12`, the IC50 was found to be 19 µM in the test on K562 (Homo sapiens, K562); 14 µM with COLO 205 (Homo sapiens, COLO 205); 48 µM with MDA-MB-231 (Homo sapiens, MDA-MB-231).

As to `COc1ccc2c(c1)[nH]c1c(C)nccc12` [HARMINE], the IC50 was 14 µM with K562 (Homo sapiens, K562); 8 µM in the test on COLO 205 (Homo sapiens, COLO 205); 32 µM with MDA-MB-231 (Homo sapiens, MDA-MB-231).

Consider `O=c1[nH]c(-c2cccc(Cl)c2)nc2ccccc12`, for which the IC50 was determined as 18 µM in the test with K562 (Homo sapiens, K562); 12 µM in the test with COLO 205 (Homo sapiens, COLO 205); 41 µM with MDA-MB-231 (Homo sapiens, MDA-MB-231).
